We go through 1 compound from patent publication EP4806427A2, “TOPICAL PHARMACEUTICAL COMPOSITIONS” (priority 2015, dated 2016).

One series deals with AhR pathway. Briefly: Target profiling. The series is classed as cell-based. To be noted: intestinal human colon adenocarcinoma.
The test system of the next series is AhR target gene, cyp1a1. Briefly: Expression of AhR target gene in keratinocytes and leukocytes. The series is classed as cell-based. To be noted: primary human keratinocytes, and human or rodent leukocytes.
Series [1] can be described thus: Solubility of the active ingredient in different solvents. The format is physicochemical. The protocol:
The solubility of the active ingredient in different solvents was determined. […] The following formulations were prepared with 5%, 10%, 15% and 20% MCT (Formulations 15-18). Two formulations (Formulations 19 and 20) were also prepared where Polawax (a proprietary blend of cetostearyl alcohol and emulsifiers) was replaced with cetostearyl alcohol and additional emulsifier.

The nature of series [2]: 28 day twice daily topical administration: toxicokinetics, skin concentrations, dermal irritancy and toxicity. The series is classed as in vivo, Göttingen minipigs. The method, then:
Following dose application on each dosing day, the dose sites were semi-occluded for approximately 20 ± 1 hours from the first dose and then gently washed before the next dose was applied.

The conditions of series [3]: Gao et al. 2011; cited from earlier work.
Where [4] appears, read: minipig, topical or ocular, 60 mg/kg/day.

Consider `CC(C)c1c(O)cc(/C=C/c2ccccc2)cc1O` [3,5-Dihydroxy-4-isopropyl-trans-stilbene], for which the “effect on the AhR pathway” value in the series on AhR pathway is “activator”. Further, the “expression of the AhR target gene, cyp1a1” value in the series with AhR target gene, cyp1a1 is on record as “induce the expression”. In addition, the solubility result in series [1] (in medium chain triglycerides (MCT)) was “good solubility”. In series [1] (in water), the solubility entry is “not soluble in water”. Also, the “No Observed Adverse Effect Level (NOAEL) for dermal irritation or systemic toxicity” value in series [2] (28 days, twice daily topical, ~10% of total body surface area, highest dose tested) is listed as 3 % (w/w). Moreover, the “Cmax Day 28” value in series [2] (Male, 60 mg/kg/day, 40320 min) is 0.845 ng/mL. The “dermal irritation and systemic toxicity” value in series [2] (minipig, in vivo) is “no dermal irritation or systemic toxicity”. For the same compound, in series [2] (setting [4]), the “gender-averaged skin concentration at necropsy, epidermis/upper dermis” value came to 8265 ng/g and the “gender-averaged skin concentration at necropsy, lower dermis” value worked out at 1830 ng/g. Besides, the “sensitivity to oxidation and photo degradation” value in series [3] was “sensitive to oxidation and photo degradation”.
